pEC50: −log10 of the molar value.
The compounds below were run against human SSTR2 (Homo sapiens (Human), UniProt P30874) (assay: Human SSTR2 intracellular cAMP functional assay for agonists (HTRF)). Conditions: not given.
Type: cell-based
Outline: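 Cells bearing human SSTR2 exposed to compound for 20 minutes at 37 °C; after lysis, cAMP measured by time-resolved fluorescence (HTRF) and converted via a standard curve. EC50 calculated from cAMP versus compound concentration.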

Chain of human SSTR2 (P30874 whole entry): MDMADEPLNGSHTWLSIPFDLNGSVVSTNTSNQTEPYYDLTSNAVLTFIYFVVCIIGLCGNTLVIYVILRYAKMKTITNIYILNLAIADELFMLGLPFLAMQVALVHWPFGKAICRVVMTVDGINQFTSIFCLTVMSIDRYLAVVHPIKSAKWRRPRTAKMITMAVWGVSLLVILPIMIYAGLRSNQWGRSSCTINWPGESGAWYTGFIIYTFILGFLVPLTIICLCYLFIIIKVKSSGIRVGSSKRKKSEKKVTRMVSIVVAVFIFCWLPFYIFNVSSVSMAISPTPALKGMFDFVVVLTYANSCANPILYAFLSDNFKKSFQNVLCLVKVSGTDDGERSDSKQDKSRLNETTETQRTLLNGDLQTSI

SMILES	pEC50
NC1CCN(c2c(-c3cc(Cl)cc(Cl)c3)cnc3ccccc23)CC1 [2-11, 1-[3-(3,5-dichlorophenyl)quinolin-4-yl]piperidin-4-amine]	7.00 to 8.00
Cc1cc(F)cc(-c2cnc3ccc(-c4cccc(C#N)c4O)cc3c2N2CC(CN)C2)c1 [2-12, 3-{4-[3-(aminomethyl)azetidin-1-yl]-3-(3-fluoro-5-methylphenyl)quinolin-6-yl}-2-hydroxybenzonitrile]	7.00 to 8.00
Cc1cc(Cl)cc(-c2cnc3ccc(-c4cccc(C#N)c4O)cc3c2N2CC(CN)C2)c1 [2-13, 3-{4-[3-(aminomethyl)azetidin-1-yl]-3-(3-chloro-5-methylphenyl)quinolin-6-yl}-2-hydroxybenzonitrile]	7.00 to 8.00
Cc1cc(F)cc(-c2cnc3ccc(-c4cc(F)cc(C(N)=O)c4)cc3c2N2CC(C)(CN)C2)c1 [2-14, 3-{4-[3-(aminomethyl)-3-methylazetidin-1-yl]-3-(3-fluoro-5-methylphenyl)quinolin-6-yl}-5-fluorobenzamide]	7.00 to 8.00
CCNCC1CN(c2c(-c3cc(C)cc(F)c3)cnc3ccc(-c4cc(F)cc(C#N)c4O)cc23)C1 [2-18, 3-(4-{3-[(ethylamino)methyl]azetidin-1-yl}-3-(3-fluoro-5-methylphenyl)quinolin-6-yl)-5-fluoro-2-hydroxybenzonitrile]	> 8.00
N#Cc1cc(F)cc(-c2ccc3ncc(-c4cc(F)cc(Cl)c4)c(N4CC(CN)C4)c3c2)c1O [2-21, 3-{4-[3-(aminomethyl)azetidin-1-yl]-3-(3-chloro-5-fluorophenyl)quinolin-6-yl}-5-fluoro-2-hydroxybenzonitrile]	7.00 to 8.00
Cc1cc(Cl)cc(-c2cnc3ccc(-c4cc(F)cc(C#N)c4O)cc3c2N2CC(CN)C2)c1 [2-22, 3-{4-[3-(aminomethyl)azetidin-1-yl]-3-(3-chloro-5-methylphenyl)quinolin-6-yl}-5-fluoro-2-hydroxybenzonitrile]	7.00 to 8.00
N#Cc1cc(F)cc(-c2ccc3ncc(-c4cc(F)cc(F)c4)c(N4CC(CN)C4)c3c2)c1O [2-23, 3-{4-[3-(aminomethyl)azetidin-1-yl]-3-(3,5-difluorophenyl)quinolin-6-yl}-5-fluoro-2-hydroxybenzonitrile]	6.00 to 7.00
Cc1cc(F)cc(-c2cnc3ccc(-c4cc(F)cc(C#N)c4O)cc3c2N2CC(CNC3COC3)C2)c1 [2-33, 5-fluoro-3-[3-(3-fluoro-5-methylphenyl)-4-(3-{[(oxetan-3-yl)amino]methyl}azetidin-1-yl)quinolin-6-yl]-2-hydroxybenzonitrile]	7.00 to 8.00
Cc1cc(F)cc(-c2cnc3ccc(-c4cc(F)cc(C#N)c4O)cc3c2N2CC(CN3CCOCC3)C2)c1 [2-35, 5-fluoro-3-[3-(3-fluoro-5-methylphenyl)-4-[3-(morpholin-4-ylmethyl)azetidin-1-yl]quinolin-6-yl]-2-hydroxybenzonitrile]	6.00 to 7.00
COCC(C)(C)NCC1CN(c2c(-c3cc(C)cc(F)c3)cnc3ccc(-c4cc(F)cc(C#N)c4O)cc23)C1 [2-39, 5-fluoro-3-[3-(3-fluoro-5-methylphenyl)-4-(3-{[(1-methoxy-2-methylpropan-2-yl)amino]methyl}azetidin-1-yl)quinolin-6-yl]-2-hydroxybenzonitrile]	6.00 to 7.00

Same assay, conditions: CHO-K1 cells stably expressing human SSTR2; NKH477-stimulated cAMP; read-out: EC50 (inhibition of cAMP activities via human SST2R)

SMILES	pEC50
NC(=O)c1cc(F)cc(-c2ccc3nnc(-c4cc(Cl)cc(Cl)c4)c(N4CCC(NCCF)CC4)c3c2)c1 [1-33, 3-[3-(3,5-dichlorophenyl)-4-{4-[(2-fluoroethyl)amino]piperidin-1-yl}cinnolin-6-yl]-5-fluorobenzamide]	> 8.00
NCC1CN(c2c(-c3cc(Cl)cc(Cl)c3)nnc3ccc(-c4cc(F)cc(C(N)=O)c4)cc23)C1 [1-34, 3-{4-[3-(aminomethyl)azetidin-1-yl]-3-(3,5-dichlorophenyl)cinnolin-6-yl}-5-fluorobenzamide]	> 8.00
Cc1cc(F)cc(-c2cnc3ccc(-c4cccc(C#N)c4O)cc3c2N2CCC(N)CC2)c1 [2-1, 3-[4-(4-aminopiperidin-1-yl)-3-(3-fluoro-5-methylphenyl)quinolin-6-yl]-2-hydroxybenzonitrile]	> 8.00
N#Cc1cccc(-c2ccc3ncc(-c4cc(F)cc(F)c4)c(N4CCC(N)CC4)c3c2)c1O [2-2, 3-[4-(4-amino-piperidin-1-yl)-3-(3,5-difluoro-phenyl)-quinolin-6-yl]-2-hydroxy-benzonitrile]	> 8.00
N#Cc1cccc(-c2ccc3ncc(-c4cc(F)cc(F)c4)c(N4CCC(N)CC4)c3c2)c1 [2-5, 3-[4-(4-aminopiperidin-1-yl)-3-(3,5-difluorophenyl)quinolin-6-yl]benzonitrile]	> 8.00
NC1CCN(c2c(-c3cc(F)cc(F)c3)cnc3ccc(-c4ccccc4O)cc23)CC1 [2-6, 2-[4-(4-aminopiperidin-1-yl)-3-(3,5-difluorophenyl)quinolin-6-yl]phenol]	> 8.00
Cc1cc(F)cc(-c2cnc3ccc(-c4cccc(C(N)=O)n4)cc3c2N2CCC(N)CC2)c1 [2-7, 6-[4-(4-aminopiperidin-1-yl)-3-(3-fluoro-5-methylphenyl)quinolin-6-yl]pyridine-2-carboxamide]	> 8.00
Cc1cc(F)cc(-c2cnc3ccc(-c4cccc5[nH]c(=O)[nH]c45)cc3c2N2CCC(N)CC2)c1 [2-8, 4-[4-(4-aminopiperidin-1-yl)-3-(3-fluoro-5-methylphenyl)quinolin-6-yl]-2,3-dihydro-1H-1,3-benzodiazol-2-one]	> 8.00
Cc1cc(F)cc(-c2cnc3ccc(-c4ccc5[nH]c(=O)[nH]c5c4)cc3c2N2CCC(N)CC2)c1 [2-9, 5-[4-(4-aminopiperidin-1-yl)-3-(3-fluoro-5-methylphenyl)quinolin-6-yl]-2,3-dihydro-1H-1,3-benzodiazol-2-one]	> 8.00
N#Cc1cc(F)cc(-c2ccc3ncc(-c4cc(F)cc(F)c4)c(N4CCC(N)CC4)c3c2)c1O [2-10, 3-[4-(4-aminopiperidin-1-yl)-3-(3,5-difluorophenyl)quinolin-6-yl]-5-fluoro-2-hydroxybenzonitrile]	> 8.00
Cc1cc(Cl)cc(-c2cnc3ccc(-c4cc(F)cc(C#N)c4O)cc3c2N2CC(C)(CN)C2)c1 [2-15, 3-{4-[3-(aminomethyl)-3-methylazetidin-1-yl]-3-(3-chloro-5-methylphenyl)quinolin-6-yl}-5-fluoro-2-hydroxybenzonitrile]	6.00 to 7.00
Cc1cc(F)cc(-c2cnc3ccc(-c4cc(F)cc(C#N)c4O)cc3c2N2CCC(N)CC2)c1 [2-16, 3-[4-(4-aminopiperidin-1-yl)-3-(3-fluoro-5-methylphenyl)quinolin-6-yl]-5-fluoro-2-hydroxybenzonitrile]	> 8.00
Cc1cc(F)cc(-c2cnc3ccc(-c4cc(F)cc(C#N)c4O)cc3c2N2CC(CN)C2)c1 [2-17, 3-{4-[3-(aminomethyl)azetidin-1-yl]-3-(3-fluoro-5-methylphenyl)quinolin-6-yl}-5-fluoro-2-hydroxybenzonitrile]	7.00 to 8.00
Cc1cc(F)cc(-c2cnc3ccc(-c4cc(F)cc(C#N)c4O)cc3c2N2CC(CNCCF)C2)c1 [2-24, 5-fluoro-3-[3-(3-fluoro-5-methylphenyl)-4-(3-{[(2-fluoroethyl)amino]methyl}azetidin-1-yl)quinolin-6-yl]-2-hydroxybenzonitrile]	> 8.00
Cc1cc(F)cc(-c2cnc3ccc(-c4cc(F)cc(C#N)c4O)cc3c2N2CC(CNC(C)C)C2)c1 [2-25, 5-fluoro-3-[3-(3-fluoro-5-methylphenyl)-4-(3-{[(propan-2-yl)amino]methyl}azetidin-1-yl)quinolin-6-yl]-2-hydroxybenzonitrile]	> 8.00
CCNCC1CN(c2c(-c3cc(C)cc(F)c3)cnc3ccc(-c4cc(F)cc(C(N)=O)c4)cc23)C1 [2-26, 3-(4-{3-[(ethylamino)methyl]azetidin-1-yl}-3-(3-fluoro-5-methylphenyl)quinolin-6-yl)-5-fluorobenzamide]	> 8.00
COCCNCC1CN(c2c(-c3cc(C)cc(F)c3)cnc3ccc(-c4cc(F)cc(C#N)c4O)cc23)C1 [2-27, 3-[3-(3-fluoro-5-methylphenyl)-4-(3-{[(2-methoxyethyl)amino]methyl}azetidin-1-yl)quinolin-6-yl]-5-fluoro-2-hydroxybenzonitrile]	> 8.00
Cc1cc(F)cc(-c2cnc3ccc(-c4cc(F)cc(C#N)c4O)cc3c2N2CC(CNCCCF)C2)c1 [2-28, 5-fluoro-3-[3-(3-fluoro-5-methylphenyl)-4-(3-{[(3-fluoropropyl)amino]methyl}azetidin-1-yl)quinolin-6-yl]-2-hydroxybenzonitrile]	> 8.00
Cc1cc(F)cc(-c2cnc3ccc(-c4cc(F)cc(C#N)c4O)cc3c2N2CC(CNC3CC3)C2)c1 [2-29, 3-[4-(3-cyclopropylaminomethyl-azetidin-1-yl)-3-(3-fluoro-5-methyl-phenyl)-quinolin-6-yl]-5-fluoro-2-hydroxy-benzonitrile]	> 8.00
Cc1cc(F)cc(-c2cnc3ccc(-c4cc(F)cc(C#N)c4O)cc3c2N2CC(CN3CCCC3)C2)c1 [2-30, 5-fluoro-3-[3-(3-fluoro-5-methyl-phenyl)-4-(3-pyrrolidin-1-ylmethyl-azetidin-1-yl)-quinolin-6-yl]-2-hydroxy-benzonitrile]	> 8.00
CCCNCC1CN(c2c(-c3cc(C)cc(F)c3)cnc3ccc(-c4cc(F)cc(C#N)c4O)cc23)C1 [2-31, 5-fluoro-3-[3-(3-fluoro-5-methylphenyl)-4-{3-[(propylamino)methyl]azetidin-1-yl}quinolin-6-yl]-2-hydroxybenzonitrile]	> 8.00
CCNCC1CN(c2c(-c3cc(C)cc(F)c3)cnc3ccc(-c4c(C)ccc(F)c4O)cc23)C1 [2-38, 2-(4-{3-[(ethylamino)methyl]azetidin-1-yl}-3-(3-fluoro-5-methylphenyl)quinolin-6-yl)-6-fluoro-3-methylphenol]	> 8.00
Cc1cc(F)cc(-c2cnc3ccc(-c4cc(F)cc(C#N)c4O)cc3c2N2CC(CNCC(C)(C)O)C2)c1 [2-40, 5-fluoro-3-[3-(3-fluoro-5-methylphenyl)-4-(3-{[(2-hydroxy-2-methylpropyl)amino]methyl}azetidin-1-yl)quinolin-6-yl]-2-hydroxybenzonitrile]	> 8.00

From patent US10351547B2, “Somatostatin modulators and uses thereof” (priority 2016, dated 2019)
